Results reported in patent US20250170248A1, “SMARCA DEGRADERS AND USES THEREOF” (Kymera Therapeutics, Inc., priority 2021, published 2025).

How the values were obtained:
Type in all cases: cell-based
SMARCA2 [1] = biological target: T1, SMARCA2 (Homo sapiens, UniProt P51531); experiment: MSD SMARCA2 degradation in A549 cell line; details: for DC50 / Dmax: 24 h; for DC50: read-out: SMARCA2 MSD A549 degradation 24 h: Average external-Abs DC50; for Dmax: A549, A549 cells
In short: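 A549 cells treated 24 h with compound, 3-fold series from 1000 nM. Lysates captured on MSD plates and SMARCA2 quantified with anti-SMARCA2 and SULFO-TAG secondary antibodies (electrochemiluminescence). DC50 and Dmax (% degradation at 24 h) reported as letter bins.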

SMARCA4 = biological target: T2, SMARCA4 (Homo sapiens, UniProt P51532); experiment: SMARCA4 Western blot degradation in MV4-11 cells; details: for SMARCA4 MSD MV411 degradation 24 h: average Dmax % / DC50: MV4-11 cells; for DC50 / Dmax: 24 h; for DC50: read-out: SMARCA4 MSD MV411 degradation 24 h: Mean external-Abs DC50; for Dmax: MV4-11, MV4-11 cells, read-out: SMARCA4 MSD MV411 degradation 24 h: average Dmax %
T2 construct: SMARCA2/SMARCA4 protein degradation selectivity in MV4-11 cells; endogenous in cells; host or cells: MV4-11
In short: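 MV4-11 cells (4×10^6/well) treated with compound for 24 h, lysed in RIPA with protease/phosphatase inhibitors, and SMARCA2, SMARCA4 and beta-actin detected by Western blot with LI-COR readout. Values reported as letter-coded DC50, 24 h Dmax % and SMARCA2/4 selectivity fold.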

SMARCA2 [2] = biological target: T1, SMARCA2; experiment: SMARCA2 Western blot degradation in MV4-11 cells; parameters: SMARCA2/SMARCA4 protein degradation selectivity in MV4-11 cells; endogenous in cells; host or cells: MV4-11; details: for Selectivity in MV411: SMARCA2/4 selectivity; for Dmax: MV4-11, MV4-11 cells, read-out: SMARCA2 MSD MV411 degradation 24 h: average Dmax %; for DC50: read-out: SMARCA2 MSD MV411 degradation 24 h: Mean external-Abs DC50

T2 sequence (P51532 whole entry): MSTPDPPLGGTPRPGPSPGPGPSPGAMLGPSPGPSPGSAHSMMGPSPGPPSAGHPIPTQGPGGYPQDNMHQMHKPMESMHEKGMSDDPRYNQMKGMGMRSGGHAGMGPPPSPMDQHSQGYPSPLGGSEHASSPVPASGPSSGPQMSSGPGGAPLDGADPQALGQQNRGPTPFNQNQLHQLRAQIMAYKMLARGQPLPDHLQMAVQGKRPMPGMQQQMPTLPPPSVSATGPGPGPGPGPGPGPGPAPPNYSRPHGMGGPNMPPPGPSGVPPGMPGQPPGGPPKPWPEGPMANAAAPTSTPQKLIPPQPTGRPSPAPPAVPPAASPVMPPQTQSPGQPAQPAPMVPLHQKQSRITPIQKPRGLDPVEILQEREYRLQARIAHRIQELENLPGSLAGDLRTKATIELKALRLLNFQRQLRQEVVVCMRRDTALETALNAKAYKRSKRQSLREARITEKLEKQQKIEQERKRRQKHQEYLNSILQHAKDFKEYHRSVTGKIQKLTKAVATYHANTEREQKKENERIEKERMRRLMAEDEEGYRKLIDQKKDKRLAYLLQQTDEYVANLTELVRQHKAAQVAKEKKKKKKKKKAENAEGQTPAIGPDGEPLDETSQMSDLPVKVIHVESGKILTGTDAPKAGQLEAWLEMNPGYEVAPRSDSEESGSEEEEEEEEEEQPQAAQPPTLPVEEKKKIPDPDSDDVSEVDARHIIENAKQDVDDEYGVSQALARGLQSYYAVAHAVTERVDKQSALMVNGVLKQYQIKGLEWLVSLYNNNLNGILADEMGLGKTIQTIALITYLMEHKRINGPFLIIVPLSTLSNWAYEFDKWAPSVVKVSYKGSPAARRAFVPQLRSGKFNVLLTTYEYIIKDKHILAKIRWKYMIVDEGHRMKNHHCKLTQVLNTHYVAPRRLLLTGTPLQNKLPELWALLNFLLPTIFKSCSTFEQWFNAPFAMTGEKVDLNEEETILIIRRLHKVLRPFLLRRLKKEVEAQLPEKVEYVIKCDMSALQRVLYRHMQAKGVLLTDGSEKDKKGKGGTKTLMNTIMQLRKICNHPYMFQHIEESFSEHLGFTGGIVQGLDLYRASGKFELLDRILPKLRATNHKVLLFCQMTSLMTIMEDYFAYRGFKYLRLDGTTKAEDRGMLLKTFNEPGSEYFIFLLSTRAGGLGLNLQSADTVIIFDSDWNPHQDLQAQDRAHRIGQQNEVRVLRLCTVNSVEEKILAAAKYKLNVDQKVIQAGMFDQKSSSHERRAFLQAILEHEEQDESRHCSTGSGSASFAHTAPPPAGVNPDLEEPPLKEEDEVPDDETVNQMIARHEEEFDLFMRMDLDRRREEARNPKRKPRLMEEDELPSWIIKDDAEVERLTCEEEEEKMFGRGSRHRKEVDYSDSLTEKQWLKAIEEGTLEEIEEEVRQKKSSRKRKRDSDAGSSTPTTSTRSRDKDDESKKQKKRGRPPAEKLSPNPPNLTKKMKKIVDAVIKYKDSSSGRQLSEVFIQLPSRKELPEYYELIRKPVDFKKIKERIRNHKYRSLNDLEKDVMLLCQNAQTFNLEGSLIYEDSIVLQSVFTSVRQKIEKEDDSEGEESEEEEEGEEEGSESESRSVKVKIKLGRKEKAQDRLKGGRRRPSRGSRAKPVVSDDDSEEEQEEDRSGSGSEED
T1 sequence (P51531 whole entry): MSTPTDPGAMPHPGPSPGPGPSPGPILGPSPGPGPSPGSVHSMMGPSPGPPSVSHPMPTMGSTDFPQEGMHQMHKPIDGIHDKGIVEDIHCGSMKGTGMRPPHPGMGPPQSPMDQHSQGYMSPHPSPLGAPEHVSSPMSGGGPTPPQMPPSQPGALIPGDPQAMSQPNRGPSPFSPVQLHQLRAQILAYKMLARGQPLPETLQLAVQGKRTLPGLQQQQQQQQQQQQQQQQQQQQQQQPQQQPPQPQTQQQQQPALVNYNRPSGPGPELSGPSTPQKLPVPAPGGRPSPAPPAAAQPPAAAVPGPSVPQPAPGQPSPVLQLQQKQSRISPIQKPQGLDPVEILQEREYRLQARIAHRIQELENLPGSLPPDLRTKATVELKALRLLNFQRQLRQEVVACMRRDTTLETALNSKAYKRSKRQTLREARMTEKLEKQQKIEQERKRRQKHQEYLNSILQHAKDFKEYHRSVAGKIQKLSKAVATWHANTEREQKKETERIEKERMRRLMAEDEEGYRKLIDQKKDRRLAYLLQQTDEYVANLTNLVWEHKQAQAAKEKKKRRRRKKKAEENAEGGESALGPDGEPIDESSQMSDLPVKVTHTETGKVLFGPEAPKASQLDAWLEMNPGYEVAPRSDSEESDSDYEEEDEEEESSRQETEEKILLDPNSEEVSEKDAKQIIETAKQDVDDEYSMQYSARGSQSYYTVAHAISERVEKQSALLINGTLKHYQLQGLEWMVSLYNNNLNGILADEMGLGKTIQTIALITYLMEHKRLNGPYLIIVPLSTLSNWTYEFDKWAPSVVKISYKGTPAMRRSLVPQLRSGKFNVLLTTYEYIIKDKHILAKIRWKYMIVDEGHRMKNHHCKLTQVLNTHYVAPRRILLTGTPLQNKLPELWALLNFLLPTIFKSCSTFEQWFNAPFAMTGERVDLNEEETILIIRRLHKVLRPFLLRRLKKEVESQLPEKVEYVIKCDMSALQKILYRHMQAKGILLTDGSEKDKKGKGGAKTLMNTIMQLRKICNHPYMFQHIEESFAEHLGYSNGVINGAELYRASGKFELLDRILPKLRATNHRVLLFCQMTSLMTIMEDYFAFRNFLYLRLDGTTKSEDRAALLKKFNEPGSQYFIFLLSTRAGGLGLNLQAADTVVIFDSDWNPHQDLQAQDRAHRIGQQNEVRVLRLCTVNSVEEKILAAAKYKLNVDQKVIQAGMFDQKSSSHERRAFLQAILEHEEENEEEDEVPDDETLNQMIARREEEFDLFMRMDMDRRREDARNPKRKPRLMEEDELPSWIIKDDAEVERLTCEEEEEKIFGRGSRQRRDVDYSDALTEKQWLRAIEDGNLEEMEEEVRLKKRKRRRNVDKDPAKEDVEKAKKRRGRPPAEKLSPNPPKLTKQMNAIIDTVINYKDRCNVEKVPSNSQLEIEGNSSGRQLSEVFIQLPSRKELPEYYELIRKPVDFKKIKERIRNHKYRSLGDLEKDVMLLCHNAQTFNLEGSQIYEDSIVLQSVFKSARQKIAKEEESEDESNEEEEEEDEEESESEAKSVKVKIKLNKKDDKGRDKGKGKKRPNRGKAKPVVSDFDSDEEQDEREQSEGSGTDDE

Structure (SMILES)	DC50 (SMARCA2 [1]; A549 cells)	SMARCA4 MSD MV411 degradation 24 h: average Dmax % (SMARCA4)	DC50 (SMARCA4)	Selectivity in MV411 (SMARCA2 [2]; MV4-11 cells)	Dmax (SMARCA2 [1])	Dmax (SMARCA4)	Dmax (SMARCA2 [2]; 24 h)	DC50 (SMARCA2 [2]; MV4-11 cells, 24 h)	SMARCA2 MSD A549 degradation 24 h: Average Dmax % (SMARCA2 [1]; A549 cells)	SMARCA2 MSD MV411 degradation 24 h: average Dmax % (SMARCA2 [2]; MV4-11 cells, 24 h)
C#Cc1ccc(CNC(=O)[C@@H]2C[C@@H](O)CN2C(=O)[C@H](NC(=O)[C@H]2CCC3(CC2)C[C@H](N2CCN(c4cnc(N5CCN6c7cc(-c8ccccc8O)nnc7NC[C@H]6C5)nc4)CC2)C3)C(C)(C)CCO)c(Cl)c1 (stereo partly shown) [I-307]	> 100 nM	D (D (<50% degradation))	> 100 nM	D (D (<10 fold))	–	–	–	–	–	–
C#Cc1ccc(CNC(=O)[C@@H]2C[C@@H](O)CN2C(=O)[C@@H](NC(=O)[C@H]2CC[C@H](CN3CCC(c4cnc(N5CCN6c7cc(-c8ccccc8O)nnc7NC[C@H]6C5)nc4)CC3)CC2)C(C)(C)C)cc1 [I-294]	< 10 nM	–	10 to 100 nM	C (C (10-100 fold))	> 90%	70 to 90%	> 90%	1 to 10 nM	–	–
C#Cc1ccc(CNC(=O)[C@@H]2C[C@@H](O)CN2C(=O)[C@H](NC(=O)N2CC3(CC(N4CCC(c5cnc(N6CCc7[nH]c8nnc(-c9ccccc9O)cc8c7[C@H]6C)nc5)CC4)C3)C2)C(C)(C)CCOCC(=O)O)cc1 (single isomer, unassigned) [I-263]	> 100 nM	–	> 100 nM	C (C (10-100 fold))	< 50%	< 50%	< 50%	> 100 nM	–	–
C#Cc1ccc(CNC(=O)[C@@H]2C[C@@H](O)CN2C(=O)[C@@H](NC(=O)N2CC3(CC(N4CCC(N5CCC(N6CCc7[nH]c8nnc(-c9ccccc9O)cc8c7[C@H]6C)CC5)CC4)C3)C2)C(C)(C)C)cc1 (single isomer, unassigned) [I-179]	> 100 nM	–	> 100 nM	B (B (>100-500 fold))	> 90%	50 to 70%	70 to 90%	10 to 100 nM	–	–
C#Cc1ccc([C@H](C)NC(=O)[C@@H]2C[C@@H](O)CN2C(=O)C(c2cc(N3CC4(CC(N5CCC(N6CCC(N7CCN8c9cc(-c%10ccccc%10O)nnc9NC[C@H]8C7)CC6)CC5)C4)C3)no2)C(C)C)cc1 (stereo partly shown) [I-332]	< 10 nM	–	1 to 10 nM	C (C (10-100 fold))	> 90%	> 90%	> 90%	< 1 nM	–	–
Cc1ncsc1-c1ccc(CNC(=O)[C@@H]2C[C@@H](O)CN2C(=O)C(c2cc(OCCN3CCC(N4CCC(c5cnc(N6CCc7[nH]c8nnc(-c9ccccc9O)cc8c7[C@H]6C)nc5)CC4)CC3)no2)C(C)C)cc1 (stereo partly shown) [I-36]	10 to 50 nM	–	1 to 10 nM	D (D (<10 fold))	> 90%	> 90%	> 90%	1 to 10 nM	–	–
C#Cc1ccc2c(c1)OCC[C@H]2NC(=O)[C@@H]1C[C@@H](O)CN1C(=O)[C@@H](NC(=O)N1CC2(CC(N3CCC(c4cnc(N5CCc6[nH]c7nnc(-c8ccccc8O)cc7c6[C@H]5C)nc4)CC3)C2)C1)C(C)(C)C (single isomer, unassigned) [I-236]	> 100 nM	–	> 100 nM	D (D (<10 fold))	70 to 90%	< 50%	50 to 70%	> 100 nM	–	–
C#Cc1ccc(C2(NC(=O)[C@@H]3C[C@@H](O)CN3C(=O)[C@@H](NC(=O)N3CC4(CC(N5CCC(N6CCC(N7CCc8[nH]c9nnc(-c%10ccccc%10O)cc9c8[C@H]7C)CC6)CC5)C4)C3)C(C)(C)C)CC2)cc1 [I-210]	> 100 nM	–	> 100 nM	C (C (10-100 fold))	> 90%	< 50%	50 to 70%	10 to 100 nM	–	–
C#Cc1ccc(C2(NC(=O)[C@@H]3C[C@@H](O)CN3C(=O)[C@@H](NC(=O)[C@H]3CC4(C3)C[C@H](N3CCC(N5CCC(N6CCN7c8cc(-c9ccccc9O)nnc8NC[C@H]7C6)CC5)CC3)C4)C(C)(C)C)CC2)cc1 (single isomer, unassigned) [I-211]	50 to 100 nM	–	> 100 nM	A (A (>500 fold))	> 90%	< 50%	70 to 90%	1 to 10 nM	–	–
C#Cc1ccc(CNC(=O)[C@@H]2C[C@@H](O)CN2C(=O)[C@@H](NC(=O)[C@H]2CCC3(CC2)C[C@H](N2CCC(N4CCC(N5CCN6c7cc(-c8ccccc8O)nnc7NC[C@H]6C5)CC4)CC2)C3)C(C)(C)C)c(F)c1 (stereo partly shown) [I-258]	> 100 nM	D (D (<50% degradation))	> 100 nM	C (C (10-100 fold))	–	–	–	10 to 100 nM	B (B (>70-90% degradation))	C (C (50-70% degradation))
C#Cc1ccc(CNC(=O)[C@@H]2C[C@@H](O)CN2C(=O)[C@@H](NC(=O)[C@H]2CC3(C2)C[C@H](N2CCN(C(=O)CN4CCN5c6cc(-c7ccccc7O)nnc6NC[C@H]5C4)CC2)C3)C(C)(C)C)cc1 (stereo partly shown) [I-240]	> 100 nM	–	10 to 100 nM	D (D (<10 fold))	–	–	–	1 to 10 nM	–	–
C#Cc1ccc(CNC(=O)[C@@H]2C[C@@H](O)CN2C(=O)[C@@H](NC(=O)[C@H]2CC3(C2)C[C@H](N2CCC(N4CCC(N5CCN6c7cc(-c8ccccc8O)nnc7NC[C@H]6C5)CC4)CC2)C3)C(C)(C)C)c(O)c1 (single isomer, unassigned) [I-241]	50 to 100 nM	–	10 to 100 nM	C (C (10-100 fold))	> 90%	70 to 90%	> 90%	1 to 10 nM	–	–
CC(C)C(C(=O)N1C[C@H](O)C[C@H]1C(=O)N[C@@H](C)C#Cc1ccccc1)c1cc(OCCN2CCC(N3CCC(N4CCC(CN5CCN6c7cc(-c8ccccc8O)nnc7NC[C@H]6C5)CC4)CC3)CC2)no1 (stereo partly shown) [I-283]	> 100 nM	–	> 100 nM	D (D (<10 fold))	70 to 90%	< 50%	< 50%	> 100 nM	–	–
C#Cc1ccc(CNC(=O)[C@@H]2C[C@@H](O)CN2C(=O)[C@@H](NC(=O)[C@H]2CCC3(CC2)C[C@H](N2CCC(N4CCC(N5CCN6c7cc(-c8ccccc8O)nnc7NC[C@H]6C5)CC4)CC2)C3)C(C)(C)C)c(F)c1 (stereo partly shown) [I-176]	> 100 nM	–	> 100 nM	C (C (10-100 fold))	> 90%	< 50%	50 to 70%	10 to 100 nM	–	–
C#Cc1ccc(CNC(=O)[C@@H]2C[C@@H](O)CN2C(=O)[C@@H](NC(=O)[C@H]2CCC3(CC2)C[C@H](N2CCC(c4cnc(N5CCN6c7cc(-c8ccccc8O)nnc7NC[C@H]6C5)nc4)CC2)C3)C(C)(C)C)c(F)c1 (single isomer, unassigned) [I-97]	10 to 50 nM	–	> 100 nM	A (A (>500 fold))	> 90%	< 50%	70 to 90%	1 to 10 nM	–	–
C#Cc1ccc(CNC(=O)[C@@H]2C[C@@H](O)CN2C(=O)[C@@H](NC(=O)N2CC3(CC(N4CCC(c5cnc(N6CCc7[nH]c8nnc(-c9ccccc9O)cc8c7[C@H]6C)nc5)CC4)C3)C2)C(C)(C)C)c(OC)c1 [I-119]	< 10 nM	–	10 to 100 nM	C (C (10-100 fold))	> 90%	> 90%	> 90%	1 to 10 nM	–	–
